ChEMBL document CHEMBL1201862, “PubChem BioAssay data set” (2004)
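In this assay, cells in 96-well plates receive the compound at five concentrations for 48 hours. Endpoints are linearly interpolated between the surrounding concentrations. The concentration for 50% growth inhibition is given as GI50.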 Calls of active or inactive are those of the source. Rule as the data show it: active = GI50 up to about 1.1 µM and inactive = higher.

Tests used:
Assay in all cases: NCI tumour cell line growth inhibition, 48 h
U-251 = tested on: U-251
COLO 205 = tested on: COLO 205
UACC-257 = tested on: UACC-257
NCI/ADR-RES = tested on: NCI/ADR-RES
BT-549 = tested on: BT-549
M14 = tested on: M14
SF-295 = tested on: SF-295
HT-29 = tested on: HT-29
LOX IMVI = tested on: LOX IMVI
MDA-MB-231 = tested on: MDA-MB-231
SF-539 = tested on: SF-539
A498 = tested on: A498
NCI-H226 = tested on: NCI-H226
ACHN = tested on: ACHN
HOP-92 = tested on: HOP-92
SF-268 = tested on: SF-268
786-0 = tested on: 786-0
EKVX = tested on: EKVX
T47D = tested on: T47D
HCT-15 = tested on: HCT-15
NCI-H23 = tested on: NCI-H23
UACC-62 = tested on: UACC-62
MDA-N = tested on: MDA-N
OVCAR-4 = tested on: OVCAR-4
OVCAR-3 = tested on: OVCAR-3
UO-31 = tested on: UO-31
IGROV-1 = tested on: IGROV-1
SK-MEL-2 = tested on: SK-MEL-2
SW-620 = tested on: SW-620
SK-MEL-28 = tested on: SK-MEL-28
SNB-19 = tested on: SNB-19
SK-MEL-5 = tested on: SK-MEL-5
TK-10 = tested on: TK-10
MDA-MB-435 = tested on: MDA-MB-435
HCC 2998 = tested on: HCC 2998
HL-60 = tested on: HL-60
MCF7 = tested on: MCF7
SNB-75 = tested on: SNB-75
A549 = tested on: A549
SK-OV-3 = tested on: SK-OV-3
RXF 393 = tested on: RXF 393
SN12C = tested on: SN12C
NCI-H460 = tested on: NCI-H460
CAKI-1 = tested on: CAKI-1
KM12 = tested on: KM12
OVCAR-5 = tested on: OVCAR-5
HCT-116 = tested on: HCT-116
OVCAR-8 = tested on: OVCAR-8
DU-145 = tested on: DU-145
HOP-62 = tested on: HOP-62
PC-3 = tested on: PC-3
MOLT-4 = tested on: MOLT-4
K562 = tested on: K562
Malme-3M = tested on: Malme-3M
NCI-H522 = tested on: NCI-H522
SR = tested on: SR
CCRF-CEM = tested on: CCRF-CEM
RPMI-8226 = tested on: RPMI-8226

CC(=O)/C(=C/n1ccc(=O)[nH]c1=S)C(=O)Nc1ccccc1C
GI50 (U-251): > 100 µM (inactive) | GI50 (COLO 205): > 100 µM (inactive) | GI50 (UACC-257): > 100 µM (inactive) | GI50 (NCI/ADR-RES): > 100 µM (inactive) | GI50 (BT-549): > 100 µM (inactive) | GI50 (M14): > 100 µM (inactive) | GI50 (SF-295): > 100 µM (inactive) | GI50 (HT-29): > 100 µM (inactive) | GI50 (LOX IMVI): > 100 µM (inactive) | GI50 (MDA-MB-231): > 100 µM (inactive) | GI50 (SF-539): > 100 µM (inactive) | GI50 (A498): > 100 µM (inactive) | GI50 (NCI-H226): > 100 µM (inactive) | GI50 (ACHN): > 100 µM (inactive) | GI50 (HOP-92): > 100 µM (inactive) | GI50 (SF-268): > 100 µM (inactive) | GI50 (786-0): > 100 µM (inactive) | GI50 (EKVX): > 100 µM (inactive) | GI50 (T47D): > 100 µM (inactive) | GI50 (HCT-15): > 100 µM | GI50 (NCI-H23): > 100 µM (inactive) | GI50 (UACC-62): > 100 µM (inactive) | GI50 (MDA-N): > 100 µM (inactive) | GI50 (OVCAR-4): > 100 µM (inactive) | GI50 (OVCAR-3): > 100 µM (inactive) | GI50 (UO-31): > 100 µM (inactive) | GI50 (IGROV-1): > 100 µM (inactive) | GI50 (SK-MEL-2): > 100 µM (inactive) | GI50 (SW-620): > 100 µM (inactive) | GI50 (SK-MEL-28): > 100 µM (inactive) | GI50 (SNB-19): > 100 µM (inactive) | GI50 (SK-MEL-5): > 100 µM (inactive) | GI50 (TK-10): > 100 µM (inactive) | GI50 (MDA-MB-435): > 100 µM (inactive) | GI50 (HCC 2998): > 100 µM (inactive) | GI50 (HL-60): 82.6 µM (inactive) | GI50 (MCF7): > 100 µM (inactive) | GI50 (SNB-75): > 100 µM (inactive) | GI50 (A549): > 100 µM (inactive) | GI50 (SK-OV-3): > 100 µM (inactive) | GI50 (RXF 393): > 100 µM (inactive) | GI50 (SN12C): > 100 µM (inactive) | GI50 (NCI-H460): > 100 µM (inactive) | GI50 (CAKI-1): > 100 µM (inactive) | GI50 (KM12): > 100 µM (inactive) | GI50 (OVCAR-5): > 100 µM (inactive) | GI50 (HCT-116): > 100 µM (inactive) | GI50 (OVCAR-8): > 100 µM (inactive) | GI50 (DU-145): > 100 µM (inactive) | GI50 (HOP-62): > 100 µM (inactive)

COC(=O)[C@H](NC(=O)OC(C)(C)C)[C@H]1COC(C)(C)O1
GI50 (U-251): > 100 µM (inactive) | GI50 (COLO 205): > 100 µM (inactive) | GI50 (UACC-257): > 100 µM (inactive) | GI50 (NCI/ADR-RES): > 100 µM (inactive) | GI50 (PC-3): > 100 µM (inactive) | GI50 (BT-549): > 100 µM (inactive) | GI50 (M14): > 100 µM (inactive) | GI50 (SF-295): > 100 µM (inactive) | GI50 (HT-29): > 100 µM (inactive) | GI50 (LOX IMVI): > 100 µM (inactive) | GI50 (MDA-MB-231): > 100 µM (inactive) | GI50 (MOLT-4): > 100 µM (inactive) | GI50 (SF-539): > 100 µM (inactive) | GI50 (A498): > 100 µM (inactive) | GI50 (ACHN): > 100 µM (inactive) | GI50 (SF-268): > 100 µM (inactive) | GI50 (786-0): > 100 µM (inactive) | GI50 (EKVX): > 100 µM (inactive) | GI50 (HCT-15): > 100 µM | GI50 (NCI-H23): > 100 µM (inactive) | GI50 (UACC-62): > 100 µM (inactive) | GI50 (MDA-N): > 100 µM (inactive) | GI50 (K562): > 100 µM (inactive) | GI50 (OVCAR-4): > 100 µM (inactive) | GI50 (OVCAR-3): > 100 µM (inactive) | GI50 (UO-31): > 100 µM (inactive) | GI50 (Malme-3M): 40.1 µM (inactive) | GI50 (IGROV-1): > 100 µM (inactive) | GI50 (SK-MEL-2): > 100 µM (inactive) | GI50 (SW-620): > 100 µM (inactive) | GI50 (SK-MEL-28): > 100 µM (inactive) | GI50 (SNB-19): > 100 µM (inactive) | GI50 (NCI-H522): > 100 µM (inactive) | GI50 (SK-MEL-5): > 100 µM (inactive) | GI50 (SR): > 100 µM (inactive) | GI50 (TK-10): > 100 µM (inactive) | GI50 (MDA-MB-435): > 100 µM (inactive) | GI50 (HCC 2998): > 100 µM (inactive) | GI50 (HL-60): > 100 µM (inactive) | GI50 (MCF7): > 100 µM (inactive) | GI50 (A549): > 100 µM (inactive) | GI50 (SK-OV-3): > 100 µM (inactive) | GI50 (RXF 393): > 100 µM (inactive) | GI50 (SN12C): > 100 µM (inactive) | GI50 (CAKI-1): > 100 µM (inactive) | GI50 (KM12): > 100 µM (inactive) | GI50 (CCRF-CEM): > 100 µM (inactive) | GI50 (RPMI-8226): > 100 µM (inactive) | GI50 (OVCAR-5): > 100 µM (inactive) | GI50 (HCT-116): > 100 µM (inactive) | GI50 (OVCAR-8): > 100 µM (inactive) | GI50 (DU-145): > 100 µM (inactive) | GI50 (HOP-62): > 100 µM (inactive)
